Laboratory results as given in patent US12097192B2 (Corcept Therapeutics Incorporated, priority 2019, dated 2024).

Test system: Cushing's syndrome patients
Test: Cushing's syndrome patient study: POMC/proACTH and HPA axis
Format: in vivo, human
Settings: for POMC and proACTH mean change from Baseline to Last Observed: All Subjects
Source text: All patients gave informed consent before participating in any study-related procedures. […] The study protocol called for patient visits to the study site at screening, on Day 1 (baseline), Weeks 2, 4, 6, 8, 10, and 12, and after a 4-week follow-up period for Group 1. For Group 2, the protocol called for patient visits to the study site at screening, on Day 1 (baseline), Weeks 2, 4, 6, 8, 10, 12, 14, and 16, and after a 4-week follow-up period. Patient dosing will be done at home, except on days of study visits. […] It ignores noncompliance, protocol deviations, withdrawal, and anything that happens after randomization. In contrast, per-protocol (PP) analysis refers to inclusion in the analysis of only those patients who strictly adhered to the protocol. The PP analysis provides an estimate of the true efficacy of an intervention, i.e., among those who completed the treatment as planned.

Cn1cc(S(=O)(=O)N2CCC3=Cc4c(cnn4-c4ccc(F)cc4)C[C@]3(C(=O)c3cc(C(F)(F)F)ccn3)C2)cn1 [relacorilant, (R)-(1-(4-fluorophenyl)-6-((1-methyl-1H-pyrazol-4-yl)sulfonyl)-4,4a,5,6,7,8-hexahydro-1H-pyrazolo[3,4-g]isoquinolin-4a-yl) (4-(trifluoromethyl)pyridin-2-yl)methanone]
POMC and proACTH mean change from Baseline to Last Observed (mITT, Group 2 (250-400 mg/day, 16 weeks)): 7.91 pmol/L
POMC and proACTH mean change from Baseline to Last Observed (mITT, Overall): 7.91 pmol/L
POMC and proACTH mean change from Baseline to Last Observed (mPP, Group 2 (250-400 mg/day, 16 weeks)): 7.91 pmol/L
POMC and proACTH mean change from Baseline to Last Observed (mPP, Overall): 7.91 pmol/L
restoration of the suppressed HPA axis (patients with adrenal Cushing syndrome): half of the cases
